≈ marks a conversion by molar mass, not a printed value.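 Each compound was tested at five concentrations against cells in 96-well plates for 48 hours. GI50 is the concentration that inhibits growth by half. TGI: total growth inhibition.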
Tests used:
Test in all cases: NCI tumour cell line growth inhibition, 48 h
SNB-78 CNS = test system: SNB-78 CNS
DLD-1 colon = test system: DLD-1 colon
M19-MEL melanoma = test system: M19-MEL melanoma
P388 leukemia = test system: P388 leukemia
SN12K1 renal = test system: SN12K1 renal
P388/ADR leukemia = test system: P388/ADR leukemia
RXF-631 renal = test system: RXF-631 renal

COC(=O)CC(=O)OC1C[C@@H]2CCC3C(C)(C)CCC[C@]3(C)C23CC[C@@]1(C)C3 (some centres undefined)
TGI (SNB-78 CNS): 42.5 µM
TGI (DLD-1 colon): 34.2 µM
TGI (M19-MEL melanoma): 36.3 µM

COc1cccc(NC(=O)/C(CS(=O)(=O)CCC(C(C)=O)C(C)=O)=N\NC(C)(C)C)c1
TGI (SNB-78 CNS): > 100 µM
TGI (DLD-1 colon): > 100 µM

CCCC(O)c1ccc2[nH]c3c(C)cc([N+](=O)[O-])c(C)c3c2c1 (centres undefined)
TGI (SNB-78 CNS): > 100 µM
TGI (DLD-1 colon): > 100 µM
TGI (M19-MEL melanoma): > 100 µM

Cc1c2ccncc2c(C)c2c1[nH]c1ccc(O)cc12
GI50 (DLD-1 colon): 0.023 µg/mL (≈ 0.0875 µM)
TGI (DLD-1 colon): 0.883 µg/mL
GI50 (M19-MEL melanoma): 0.0231 µg/mL (≈ 0.0881 µM)
TGI (M19-MEL melanoma): 0.388 µg/mL
TGI (P388 leukemia): 0.232 µg/mL
GI50 (SN12K1 renal): 0.0168 µg/mL (≈ 0.0639 µM)
TGI (SN12K1 renal): 0.182 µg/mL
GI50 (P388/ADR leukemia): 0.014 µg/mL (≈ 0.0532 µM)
TGI (P388/ADR leukemia): 1.75 µg/mL

COC1=CC(=O)C2(C=C1OC)OC[C@H]1Oc3c(ccc4c3C=CC(C)(C)O4)C(=O)[C@H]12 (some centres undefined)
TGI (SNB-78 CNS): > 100 µM
TGI (RXF-631 renal): > 100 µM
TGI (DLD-1 colon): > 100 µM
TGI (M19-MEL melanoma): > 100 µM

O=C1CCNC/C1=C\c1ccccc1
TGI (SNB-78 CNS): > 100 µM
TGI (RXF-631 renal): > 100 µM
TGI (DLD-1 colon): 48.3 µM
TGI (M19-MEL melanoma): 39.3 µM

CNC(=O)OC1/C(C)=C\C(C)C(O)C(OC)CC(C)CC2=C(OC)C(=O)C=C(C2=O)N(C)C(=O)/C(C)=C/C=C\C1OC (centres undefined)
TGI (SNB-78 CNS): 30.3 µM
TGI (RXF-631 renal): 41.2 µM
TGI (DLD-1 colon): 16.4 µM
TGI (M19-MEL melanoma): 14.7 µM

Cc1ccccc1NC(=O)C(=O)C(C(=O)c1ccccc1F)C1OC(=O)c2ccccc21 (centres undefined)
TGI (SNB-78 CNS): 80.8 µM
TGI (RXF-631 renal): 73.6 µM
TGI (DLD-1 colon): 57.7 µM

O=S(c1ccc(O)cc1)c1ccc(O)cc1
TGI (RXF-631 renal): > 100 µM
TGI (DLD-1 colon): > 100 µM
TGI (M19-MEL melanoma): > 100 µM

CCCOC(=O)CCC(NC(=O)c1ccc(Nc2nc3ccccc3nc2-c2cccs2)cc1)C(=O)OCCC (centres undefined)
TGI (SNB-78 CNS): > 100 µM
TGI (RXF-631 renal): > 100 µM
TGI (M19-MEL melanoma): > 100 µM

COc1ccc(N2C(=O)[C@@H]3[C@@H]4CC(C)CC[C@@H]4c4c([nH]c5ccccc45)[C@@H]3C2=O)cc1 (some centres undefined)
TGI (SNB-78 CNS): 27.2 µM
TGI (DLD-1 colon): > 58.4 µM
TGI (M19-MEL melanoma): > 100 µM

CC(=O)OC1CCC2(C)C(CCC3C2CCC2(C)C(c4ccc(=O)oc4)C(OC(C)=O)CC32O)C1 (centres undefined)
TGI (SNB-78 CNS): 0.112 µM
TGI (DLD-1 colon): 0.0293 µM
TGI (P388 leukemia): 125 µM
TGI (SN12K1 renal): 0.0296 µM
TGI (P388/ADR leukemia): 125 µM

CCOC(=O)CN(CC)C(=O)NC12CC3CC(CC(C3)C1)C2
TGI (SNB-78 CNS): 709 µM
TGI (DLD-1 colon): > 119 µM
TGI (M19-MEL melanoma): 472 µM
TGI (P388 leukemia): 508 µM
TGI (SN12K1 renal): 569 µM
TGI (P388/ADR leukemia): 640 µM

O=[N+]([O-])c1ccc(N=P(c2ccccc2)(c2ccccc2)c2ccccc2)n2nnnc12
TGI (M19-MEL melanoma): > 100 µM

O=C(CC(C(=O)c1ccsc1)c1cccs1)c1cccs1 (centres undefined)
TGI (SNB-78 CNS): > 100 µM
TGI (DLD-1 colon): > 100 µM
TGI (M19-MEL melanoma): > 100 µM

COC(OC)c1cccc2c1C(=O)CCC1(CC2)OCCCCO1
TGI (SNB-78 CNS): > 100 µM
TGI (DLD-1 colon): > 100 µM
TGI (M19-MEL melanoma): > 100 µM

O=C1N[C@@H]([C@H]2CC[C@H](Cl)CN2)C(=O)N[C@H]1[C@H]1CC[C@H](Cl)CN1
TGI (SNB-78 CNS): 87.8 µM
TGI (DLD-1 colon): 286 µM
TGI (M19-MEL melanoma): 23.5 µM
TGI (P388 leukemia): 20.3 µM
TGI (SN12K1 renal): 13.5 µM
TGI (P388/ADR leukemia): 23.1 µM

O=C1C=C2SC3C[C@@]24CC1(O)[N+]1=c2c4c(c(O)c4c2=C(C=N4)CC1)N3
TGI (SNB-78 CNS): 4.21 µM
TGI (DLD-1 colon): 2.65 µM
TGI (M19-MEL melanoma): 0.773 µM
TGI (P388 leukemia): 4.78 µM
TGI (SN12K1 renal): 2.73 µM

COC1=CC(=O)[C@@]2(C)C(C)[C@H](c3ccccc3)[C@H]2C1=O (some centres undefined)
TGI (RXF-631 renal): > 100 µM
TGI (DLD-1 colon): > 100 µM
TGI (M19-MEL melanoma): > 100 µM

O=C1OCc2nc3c(c(-c4ccccc4C(F)(F)F)c21)C(=O)OC3
TGI (SNB-78 CNS): > 100 µM
TGI (DLD-1 colon): > 100 µM
TGI (M19-MEL melanoma): > 100 µM

Cc1[nH]c2c(C)c3c([nH]c4ccc(Cl)cc43)c(C)c2c(=O)c1C
TGI (SNB-78 CNS): > 100 µM
TGI (DLD-1 colon): 73.3 µM
TGI (M19-MEL melanoma): 54.9 µM

Cc1cc2c3ccccc3n3c2c2c1OC1(C)CCC(C2C1)C3(C)C (centres undefined)
TGI (SNB-78 CNS): > 25 µM
TGI (DLD-1 colon): > 25 µM
TGI (M19-MEL melanoma): > 25 µM

O=C1c2ccccc2C(=O)c2c1ccc1c3ccccc3n(-c3ccccc3)c21
TGI (SNB-78 CNS): 49.3 µM
TGI (RXF-631 renal): 20.7 µM
TGI (DLD-1 colon): 41.6 µM
TGI (M19-MEL melanoma): 38.6 µM

CCN(CC)C(=O)Cc1[nH][nH]c(=O)c1C(=O)N(CC)CC
TGI (SNB-78 CNS): > 100 µM
TGI (DLD-1 colon): > 100 µM
TGI (M19-MEL melanoma): > 100 µM

Reference: PubChem BioAssay (NCI)
